Legend:
Format in all cases: in vitro ADME
CYP2D6 = molecular target: T1, CYP2D6 (Canis lupus familiaris, UniProt Q29473); experiment: CYP450 inhibition study of LKMS in dog liver microsomes, dextromethorphan O-demethylation
T1 construct: from tissue; host or cells: dog liver microsomes (DLM)
T1 sequence (Q29473 1-500): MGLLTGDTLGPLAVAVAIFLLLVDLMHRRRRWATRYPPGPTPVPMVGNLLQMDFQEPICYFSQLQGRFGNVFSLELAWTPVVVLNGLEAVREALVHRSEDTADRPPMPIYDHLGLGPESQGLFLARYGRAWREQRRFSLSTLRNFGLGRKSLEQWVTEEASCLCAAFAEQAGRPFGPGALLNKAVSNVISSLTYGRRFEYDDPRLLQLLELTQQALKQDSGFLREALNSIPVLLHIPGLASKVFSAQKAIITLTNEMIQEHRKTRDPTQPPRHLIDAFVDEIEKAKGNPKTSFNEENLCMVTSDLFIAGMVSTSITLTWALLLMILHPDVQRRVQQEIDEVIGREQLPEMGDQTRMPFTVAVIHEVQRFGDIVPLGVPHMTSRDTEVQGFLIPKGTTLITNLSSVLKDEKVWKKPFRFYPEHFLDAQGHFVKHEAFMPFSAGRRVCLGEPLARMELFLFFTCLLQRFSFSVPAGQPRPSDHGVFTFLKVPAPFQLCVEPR
Protocol: (§1) All experiments were performed in triplicate.
(§2) Inhibition assessment of CYP450 isoforms in DLM was performed with a fixed concentration of model probe substrates and a series of concentrations of LKMS ranging from 0 to 80 μM. The concentration of probe substrates was at a concentration of Km in this study. […] Mode inhibition was examined based on a primary Lineweaver–Burk plot and a secondary plot.
(§3) The IC50 values and enzyme kinetic parameters were determined by plotting relative activities over the logarithm of the concentration of LKMS using GraphPad (v.8.0.2, CA, USA). The mode of the inhibitor was analyzed using a Lineweaver–Burk plot and a secondary plot for inhibition constant (Ki and αKi) values. All experimental data are shown as mean ± standard deviation (SD).

CYP2E1 = molecular target: T2, CYP2E1 (Canis lupus familiaris, UniProt Q9MZY0); experiment: CYP450 inhibition study of LKMS in dog liver microsomes, chlorzoxazone hydroxylation; conditions: probe at Km, 15 min, 0.2 mg/mL protein, n = 3
T2 construct: from tissue; host or cells: dog liver microsomes (DLM)
T2 sequence (Q9MZY0 whole entry): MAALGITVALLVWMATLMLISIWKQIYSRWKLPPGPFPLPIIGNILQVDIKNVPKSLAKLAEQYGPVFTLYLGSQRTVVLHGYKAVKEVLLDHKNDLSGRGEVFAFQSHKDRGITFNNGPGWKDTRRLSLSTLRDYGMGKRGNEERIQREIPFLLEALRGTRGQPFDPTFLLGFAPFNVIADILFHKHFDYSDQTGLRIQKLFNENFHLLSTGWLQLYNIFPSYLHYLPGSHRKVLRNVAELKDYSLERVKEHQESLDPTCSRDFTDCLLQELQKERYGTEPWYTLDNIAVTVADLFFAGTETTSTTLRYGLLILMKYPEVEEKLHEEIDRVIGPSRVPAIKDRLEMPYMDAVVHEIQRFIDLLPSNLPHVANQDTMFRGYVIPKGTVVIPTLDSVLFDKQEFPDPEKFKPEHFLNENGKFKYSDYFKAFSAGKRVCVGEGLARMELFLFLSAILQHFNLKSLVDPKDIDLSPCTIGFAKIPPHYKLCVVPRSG
Protocol: as §1, §2, §3

CYP2A6 = experiment: Irreversible inhibition (IC50 shift) in dog liver microsomes
Protocol: (§4) To characterize the reversible or irreversible mechanism of CYP450 inhibition via LKMS, the shifted IC50 values were used to determine whether the inhibition of LKMS on CYP450 was time-dependent. […] The above mixture was then incubated for another 30 min in the presence of NADPH. The concentrations of LKMS were designated as 0.2, 2, 4, 6, 8, 10, 20, 40, and 80 μM, and the concentration of each probe substrate was based on each Km value. The concentrations of the probe substrates of CYP2A6, CYP2B6, and CYP2D6 were at single concentrations approximating their Km values.

CYP2B6 = molecular target: T3, CYP2B6 (Canis lupus familiaris, UniProt P24460); experiment: as above
T3 construct: from tissue; host or cells: dog liver microsomes (DLM)
T3 sequence (P24460 1-494): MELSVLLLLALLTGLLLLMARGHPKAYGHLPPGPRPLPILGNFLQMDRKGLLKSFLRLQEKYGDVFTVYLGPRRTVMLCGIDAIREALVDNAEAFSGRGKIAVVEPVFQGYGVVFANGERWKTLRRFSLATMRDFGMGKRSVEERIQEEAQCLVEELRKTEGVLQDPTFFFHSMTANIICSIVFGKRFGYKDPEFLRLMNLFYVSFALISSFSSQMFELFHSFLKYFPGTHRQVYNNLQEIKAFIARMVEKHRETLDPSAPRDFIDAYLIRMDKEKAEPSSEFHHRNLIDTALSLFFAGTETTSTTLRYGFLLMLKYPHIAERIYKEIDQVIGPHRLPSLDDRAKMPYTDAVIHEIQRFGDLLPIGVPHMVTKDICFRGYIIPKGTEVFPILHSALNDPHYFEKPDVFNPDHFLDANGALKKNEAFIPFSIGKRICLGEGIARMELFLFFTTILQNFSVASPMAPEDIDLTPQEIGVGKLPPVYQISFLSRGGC
Protocol: as §4

Substance: Lekethromycin [LKMS]
- Mode of inhibition (CYP2D6; CYP2D6, Lineweaver-Burk plots): mixed way
- Ki (CYP2D6; CYP2D6, dog liver microsomes, Lineweaver-Burk and secondary (slope) plot, n = 2, read-out: Ki (inhibition constant)): 64.9 µM
- αKi (alpha inhibition constant) (CYP2D6; CYP2D6, dog liver microsomes, secondary (intercept) plot, n = 2): 279.6 µM
- IC50 (CYP2D6; dog liver microsomes, dextromethorphan O-demethylation, probe at Km, 15 min, 0.2 mg/mL protein, n = 3): 39.7 µM
- IC50 (CYP2E1): > 200 µM
- IC50 fold-shift, Shift Ratio (−NADPH/+NADPH) (CYP2A6; CYP2A6, 30 min preincubation at 37 °C with and without NADPH): 1.29
- Time-dependent inhibition (CYP2A6; CYP2A6, judged from IC50 fold-shift <1.5): might not be a time-dependent inhibitor
- IC50 fold-shift, Shift Ratio (−NADPH/+NADPH) (CYP2B6; CYP2B6, 30 min preincubation at 37 °C with and without NADPH): 0.88
- Time-dependent inhibition (CYP2B6; CYP2B6, judged from IC50 fold-shift <1.5): might not be a time-dependent inhibitor

Source: article PMC10609143, “Inhibitory Mechanisms of Lekethromycin in Dog Liver Cytochrome P450 Enzymes Based on UPLC-MS/MS Cocktail Method” (Molecules, 2023)
